From patent publication US20090202574A1, “METHODS OF IMMUNE OR HAEMATOLOGICAL ENHANCEMENT, INHIBITING TUMOUR FORMATION OR GROWTH, AND TREATING OR PREVENTING CANCER” (priority 2004, published 2009)

Experiments:
EL-4 tumours = experiment: EL-4 tumour growth in mice (s.c. flank tumour model); type: in vivo, C57BL/6 mice; conditions: for EL-4 tumour response: Example 18, 28 g Fe-Lf per 2.4 Kg diet, drugs i.p. at ~0.4 to 0.5 cm
[1] = system: Lewis lung carcinoma (LLC) tumours; experiment: Lewis lung carcinoma tumour growth in mice; type: in vivo, C57BL/6 mice; conditions: Example 18; 28 g Fe-Lf per 2.4 Kg diet; epirubucin 15 mg/Kg i.p.
Procedure: Tumors were established by s.c. injection of 2×10^5 EL-4 cells into the left flank of mice, and growth determined by measuring two perpendicular diameters. Animals were euthanased when tumors reached more than 1.0 cm in diameter, in accord with Animal Ethics Approval (University of Auckland). All experiments included 5 mice per treatment group, unless otherwise indicated. Paclitaxel (30 mg dissolved in 5 ml of Cremophor® EL and dehydrated alcohol) was diluted in 0.9% NaCl and administered i.p. at 30 mg/Kg. Doxorubucin in water was injected i.p. at 15 mg/Kg. The drugs were injected in a volume of 0.01 to 0.02 ml/g body weight. The expression vector encoding mouse B7-1 was prepared by cesium chloride gradient centrifugation, and diluted to 5 μg/μl in a solution of 5% glucose in 0.01% Triton X-100. It was mixed in a ratio of 1:1 (wt:wt) with DOTAP cationic liposomes (Boehringer Mannheim, Germany). Tumors were injected with 180 μl of DNA (180 μg)/liposome complexes, as described previously (Kanwar, et al., 1999 and Kanwar, et al., 2000).
Mice were fed the control diet, and the same diet supplemented with 28 g of 100% Fe-saturated lactoferrin per 2.4 Kg of diet. EL-4 (2×10^5), Lewis lung carcinoma (LLC, 2×10^5), and B16 melanoma (2×10^5) tumour cells were injected into the left flanks of C57BL/6 mice following two weeks on the Lf diets, or control diet. […]

EL-4 target cells = experiment: Anti-tumour CTL and/or NK cell cytolytic activity of splenocytes against EL-4 target cells; conditions: Example 18; mice fed control diet
Procedure: Splenocytes were harvested 28 days following tumour cell injection, as specified. They were incubated at 37° C. with EL-4 target cells in graded E:T ratios in 96-well round-bottom plates. After a 4-hour incubation, 50 μl of supernatant was collected, and lysis was measured using the Cyto Tox 96 Assay Kit (Promega, Madison, Wis., USA). Background controls for non-specific target and effector cell lysis were included. After background subtraction, percentage of cell lysis was calculated using the formula: 100× (experimental-spontaneous effector-spontaneous target/maximum target-spontaneous target).

IL-18 = IL-18 production by cultured intestinal loops; type: cell-based, mice; conditions: Example 20; 400 and 800 μg/ml; 48 h
Procedure: Cytokine levels in the supernatants of homogenates of the small intestine were determined using a “sandwich” ELISA kit (Endogen, Woburn, Mass.). They were detected within standard curve ranges of 15-375 pg/ml for IL-4, 0-2450 pg/ml for IL-5, 15-1000 pg/ml for TNF-α, 0-3000 pg/ml for IFN-γ, 37-3000 pg/ml for IL-10, 31.3-2000 pg/ml for IL-12, and 31.3-2000 pg/ml for IL-18, respectively. Quantification of nitrite, indicative of NO production, was carried out by the Griess reaction (Sigma, USA). The results are expressed as the mean nitrite concentration (μM)±SD.
100% Fe-saturated Lf, natural Lf (less than 20% iron saturated), and bovine serum albumin control were added at 400 and 800 μg/ml to intestinal loops (2.5 cm segments of the small intestine) prepared from healthy 6 to 7 week-old female mice, which were kept in culture for 48 h. IL-18 levels released by the intestinal loops, and present in the supernatants of homogenates of the small intestine were determined using a “sandwich” ELISA kit as described above.

`COc1cccc2c1C(=O)c1c(O)c3c(c(O)c1C2=O)C[C@@](O)(C(=O)CO)C[C@@H]3O[C@H]1C[C@H](N)[C@@H](O)[C@H](C)O1` [Epirubucin, reference compound] was tested, and the EL-4 tumour response (EL-4 tumours) was “slight delay in the growth”, the LLC tumour response [1] was “slight delay in the growth” and the “effect of drug alone on anti-tumour cytolytic activity” value (from here on “effect of drug alone”) (EL-4 target cells) was “negligible effect”.
For `O=P1(N(CCCl)CCCl)NCCCO1` (stereo not drawn) [cyclophosphamide, reference compound], the EL-4 tumour response (EL-4 tumours) was “little effect” and the “effect of drug alone” value (EL-4 target cells) was “small increases”.
With `COc1cccc2c1C(=O)c1c(O)c3c(c(O)c1C2=O)C[C@@](O)(C(=O)CO)C[C@@H]3O[C@H]1C[C@H](N)[C@H](O)[C@H](C)O1` [doxorubicin, reference compound] the tumour response (EL-4 tumours; Example 6, doxorubicin 15 mg/Kg and/or paclitaxel 30 mg/Kg single dose i.p. at ~0.55 cm) was “regressed to half their size within one week of administration of doxorubicin, but then began to grow again”.
In the case of `O=c1[nH]cc(F)c(=O)[nH]1` [fluorouracil, reference compound], the “effect of drug alone” value (EL-4 target cells) is reported as “only slightly enhanced”.
In the case of `CN(Cc1cnc2nc(N)nc(N)c2n1)c1ccc(C(=O)N[C@@H](CCC(=O)O)C(=O)O)cc1` [methotrexate, reference compound], the EL-4 tumour response (EL-4 tumours) is reported as “no discernible effect” and the “effect of drug alone” value (EL-4 target cells) is reported as “small increases”.
In the case of `CC(=O)O[C@H]1C(=O)[C@@]2(C)[C@H]([C@H](OC(=O)c3ccccc3)[C@]3(O)C[C@H](OC(=O)[C@H](O)[C@@H](NC(=O)c4ccccc4)c4ccccc4)C(C)=C1C3(C)C)[C@]1(OC(C)=O)CO[C@@H]1C[C@@H]2O` [paclitaxel, reference compound], the tumour response (EL-4 tumours; Example 5, paclitaxel 30 mg/Kg i.p. at 0.5 cm tumour diameter) is reported as “grew completely unchecked” and the “tumour response to paclitaxel” value (EL-4 tumours; Example 15, paclitaxel 30 mg/Kg i.p. at ~0.6 cm, 20 g Lf per 2.4 Kg diet) is reported as “completely resistant”.
In the case of “bovine serum albumin: control protein in intestinal loop test [reference compound]”, the “effect on the levels of IL-18 already detectable in the intestine” value (IL-18) is reported as “negligible effect”.
